Measurements taken from PMC8222254, “Self-assembly of an anion receptor with metal-dependent kinase inhibition and potent in vitro anti-cancer properties” (Nature Communications, 2021).
pIC50: −log10 of the molar value. Values joined by “and” are separate entries in the source; they are usually repeats but may differ in a detail not shown here. Equal entries are not always repeated. Where two headings read alike, the source gives them in different places.

How the values were obtained:
Experiment in all cases: Chemosensitivity, 96 h continuous exposure, MTT assay
Assay type in all cases: cell-based, human
H460 = details: for Selectivity index (ARPE19): IC50 ARPE-19 / IC50 H460; for Selectivity index (MCF10A): IC50 MCF10A / IC50 H460; for Relative potency (+ anion to no anion), Ratio + anion:no anion: ratio of IC50, H460; for Selectivity indices relative to ARPE-19, Ratio + anion:no anion: ratio of SI (ARPE-19); for Selectivity indices relative to MCF10A, Ratio + anion:no anion: ratio of SI (MCF 10A)
In short: (§1)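 H460 lung and PSN1 pancreatic carcinoma lines, grown in RPMI-1640 with 10% FBS, were plated at 2 × 10^3 cells/well, dosed across a concentration range for 96 h, then given MTT for 4 h. Formazan absorbance at 540 nm gave IC50 values.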

HCT116 p53-/- = details: for pIC50 / Selectivity indices relative to ARPE-19, Ratio + anion:no anion / Selectivity indices relative to MCF10A, Ratio + anion:no anion: HCT116 p53-/-; for Selectivity index (ARPE19): IC50 ARPE-19 / IC50 HCT116 p53-/-; for Selectivity index (MCF10A): IC50 MCF10A / IC50 HCT116 p53-/-; for Relative potency (+ anion to no anion), Ratio + anion:no anion: ratio of IC50, HCT116 p53-/-; for Selectivity indices relative to ARPE-19, Ratio + anion:no anion: ratio of SI (ARPE-19); for Selectivity indices relative to MCF10A, Ratio + anion:no anion: ratio of SI (MCF 10A)
In short: (§2)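 Cells seeded at 2 × 10^3/well (GBM1 3 × 10^3/well) and left overnight at 37 °C, then exposed continuously for 96 h to a range of compound concentrations (final DMSO 0.2%). Viability read by MTT, absorbance at 540 nm; IC50 taken from dose-response curves as concentration reducing cell growth by 50%.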

HT-29 = details: for Selectivity index (ARPE19): IC50 ARPE-19 / IC50 HT29; for Selectivity index (MCF10A): IC50 MCF10A / IC50 HT29; for Relative potency (+ anion to no anion), Ratio + anion:no anion: ratio of IC50, HT29; for Selectivity indices relative to ARPE-19, Ratio + anion:no anion: ratio of SI (ARPE-19); for Selectivity indices relative to MCF10A, Ratio + anion:no anion: ratio of SI (MCF 10A)
In short: as §2

PSN1 = details: for Selectivity index (ARPE19): IC50 ARPE-19 / IC50 PSN1; for Selectivity index (MCF10A): IC50 MCF10A / IC50 PSN1; for pIC50 / Selectivity indices relative to ARPE-19, Ratio + anion:no anion / Selectivity indices relative to MCF10A, Ratio + anion:no anion: PSN1; for Relative potency (+ anion to no anion), Ratio + anion:no anion: ratio of IC50, PSN1; for Selectivity indices relative to ARPE-19, Ratio + anion:no anion: ratio of SI (ARPE-19); for Selectivity indices relative to MCF10A, Ratio + anion:no anion: ratio of SI (MCF 10A)
In short: as §1

[1] = H460, mean of replicates, read-out: Mean IC50
[2] = H460, read-out: Mean IC50 values
[3] = H460, single replicate, read-out: IC50 values for each replicate
[4] = mean of replicates, read-out: Mean IC50
[5] = single replicate, read-out: IC50 values for each replicate
[6] = HT29, mean of replicates, read-out: Mean IC50
[7] = HT29, read-out: Mean IC50 values
[8] = HT-29, single replicate, read-out: IC50 values for each replicate

| Compound | pIC50 (H460; [1]) | pIC50 (H460; [2]) | pIC50 (H460; [3]) | Selectivity index (ARPE19) (H460) | Selectivity index (MCF10A) (H460) | Relative potency (+ anion to no anion), Ratio + anion:no anion (H460) | Selectivity indices relative to ARPE-19, Ratio + anion:no anion (H460; H460) | Selectivity indices relative to MCF10A, Ratio + anion:no anion (H460; H460) | pIC50 (HCT116 p53-/-; [4]) | pIC50 (HCT116 p53-/-; read-out: Mean IC50 values) | pIC50 (HCT116 p53-/-; [5]) | Selectivity index (ARPE19) (HCT116 p53-/-) | Selectivity index (MCF10A) (HCT116 p53-/-) | Relative potency (+ anion to no anion), Ratio + anion:no anion (HCT116 p53-/-) | Selectivity indices relative to ARPE-19, Ratio + anion:no anion (HCT116 p53-/-) | Selectivity indices relative to MCF10A, Ratio + anion:no anion (HCT116 p53-/-) | pIC50 (HT-29; [6]) | pIC50 (HT-29; [7]) | pIC50 (HT-29; [8]) | Selectivity index (ARPE19) (HT-29) | IC50 (H460; [3]) | other results |
| --- | --- | --- | --- | --- | --- | --- | --- | --- | --- | --- | --- | --- | --- | --- | --- | --- | --- | --- | --- | --- | --- | --- |
| O=P([O-])([O-])Oc1ccccc1.[Cu+2].[Cu+2].[Cu+2].c1ccc(-c2csc(NCCN(CCNc3nc(-c4ccccn4)cs3)CCNc3nc(-c4ccccn4)cs3)n2)nc1.c1ccc(-c2csc(NCCN(CCNc3nc(-c4ccccn4)cs3)CCNc3nc(-c4ccccn4)cs3)n2)nc1 [[L2Cu3(O3POPh)]4+] | 6.70 | 6.70 | 6.91 and 6.63 and 6.79 and 6.64 and 6.61 | 582.02 | 259.98 | 0.72 | 3.052 | 1.487 | 7.09 | 7.09 | 7.10 and 7.07 | 1405.37 | 627.77 | 0.60 | 3.658 | 1.782 | 6.16 | 6.16 | 6.16 and 6.07 and 6.19 and 6.71 and 5.80 and 6.67 | 165.81 |  | Selectivity index (MCF10A) (HT-29): 74.07; Relative potency (+ anion to no anion), Ratio + anion:no anion (HT-29): 3.25; Selectivity indices relative to ARPE-19, Ratio + anion:no anion (HT-29; HT29): 0.674; Selectivity indices relative to MCF10A, Ratio + anion:no anion (HT-29; HT29): 0.328; Selectivity index (ARPE19) (PSN1): 536.00; Selectivity index (MCF10A) (PSN1): 239.43; pIC50 (PSN1; [4]): 6.67; pIC50 (PSN1; read-out: Mean IC50 values): 6.67; pIC50 (PSN1; [5]): 6.71 and 6.66 and 6.64; Relative potency (+ anion to no anion), Ratio + anion:no anion (PSN1): 0.0333; Selectivity indices relative to ARPE-19, Ratio + anion:no anion (PSN1): 65.686; Selectivity indices relative to MCF10A, Ratio + anion:no anion (PSN1): 32.009 |
| O=P([O-])([O-])[O-].[Cu+2].[Cu+2].[Cu+2].c1ccc(-c2csc(NCCN(CCNc3nc(-c4ccccn4)cs3)CCNc3nc(-c4ccccn4)cs3)n2)nc1.c1ccc(-c2csc(NCCN(CCNc3nc(-c4ccccn4)cs3)CCNc3nc(-c4ccccn4)cs3)n2)nc1 [[L2Cu3(PO4)]3+] | 5.85 | 5.85 |  | 115.82 | 34.92 | 5.12 | 0.607 | 0.200 | 6.41 | 6.41 | 6.16 and 6.27 and 6.58 and 6.69 and 6.62 | 422.09 | 127.27 | 2.83 | 1.099 | 0.361 | 6.49 | 6.49 | 6.65 and 6.58 and 6.23 and 6.49 and 6.64 | 502.36 | 592 nM and 533 nM and 1.4 µM and 2.22 µM and 504 nM and 1.98 µM (2×) and 2.1 µM | Selectivity index (MCF10A) (HT-29): 151.48; Relative potency (+ anion to no anion), Ratio + anion:no anion (HT-29): 1.52; Selectivity indices relative to ARPE-19, Ratio + anion:no anion (HT-29; HT29): 2.043; Selectivity indices relative to MCF10A, Ratio + anion:no anion (HT-29; HT29): 0.672; Selectivity index (ARPE19) (PSN1): 9.29; Selectivity index (MCF10A) (PSN1): 2.80; pIC50 (PSN1; [4]): 4.75; pIC50 (PSN1; read-out: Mean IC50 values): 4.75; pIC50 (PSN1; [5]): 4.73 and 4.76 and 4.80; Relative potency (+ anion to no anion), Ratio + anion:no anion (PSN1): 2.73; Selectivity indices relative to ARPE-19, Ratio + anion:no anion (PSN1): 1.138; Selectivity indices relative to MCF10A, Ratio + anion:no anion (PSN1): 0.374 |
